Laboratory results taken from patent US10869928B2, “Lyophilized preparation of cytotoxic dipeptides” (ONCOPEPTIDES AB, priority 2011, dated 2020).
Structures can show the parent of a compound that is named as a salt.

Key:
[1] = Determination of dissolution rate (Example 5); assay type: physicochemical; settings: Solution: 5% glucose + Polysorbate 80
Protocol: A 5% glucose solution was added to each plastic vial containing J1. The vials were shaken and filtered at different time-points. The filtrate was transferred to glass vials and the amount of dissolved J1 was determined by HPLC.

[2] = Stability in aqueous solutions; assay type: physicochemical
[3] = Stability of melphalan flufenamide dissolved in DMA in a glucose solution; settings: dissolved in DMA (dimethylacetamide) in a glucose solution

In the case of `CCOC(=O)[C@H](Cc1ccc(F)cc1)NC(=O)[C@@H](N)Cc1ccc(N(CCCl)CCCl)cc1` [Experiment J1, melphalanyl-L-p-fluorophenylalanine ethyl ester hydrochloride], the “Time (min) to reach steady state dissolution” value [1] is reported as 1 to 2 min, the hydrolysis in water ([2]; water) is reported as “quickly hydrolyzed” and the degradation [3] is reported as 7 % degradation/h.

With `N[C@@H](Cc1ccc(N(CCCl)CCCl)cc1)C(=O)O` [Melphalan, p-[bis-(2-chloroethyl)amino]phenylalanine, reference compound] the “times more stable in aqueous solutions compared to J1” value ([2]; aqueous solutions, relative to J1) was 10,000 times.
